Results taken from patent US5707855A (priority 1996, dated 1998).

Tests used:
[1] = MICs of common antibiotics in the presence of sub-MIC levels of cationic peptides; assay type: cell-based; conditions: for MIC of antibiotic: No peptide
Experimental: (§1) The minimum inhibitory concentrations of (MIC) of CEME, CEMA and melittin were determined for a number of different bacteria (Table 2). Briefly, cells were grown overnight at 37° C. in LB-S (Luria broth without any salt supplement) and diluted one in 10,000 in the same medium to give concentrations of about 10^4 to 10^5 CFU/ml. The broth dilutions were set up in a 96 well microtiter plate by putting 200 μl of LB-S containing the initial concentration of antibiotic or compound in column 1 and 100 μl of the same medium in columns 2-12. The compounds were diluted by taking 100 μl of broth from column 1 and mixing it with column 2, resulting in a one in two dilution. This was continued to column 10. Finally, 10 μl of bacteria were pipetted into columns 1-11, and the plates incubated overnight at 37° C. The next day the plates were scored for growth in the wells, and the MIC determined.
The ability of the cationic peptides to work synergystically was examined by determining the MIC values for some commonly used antibiotics in the presence of sub-MIC levels of cationic peptides (Table 4). […] This may be due to the high membrane permeabilizing activity of CEMA (see below). However, the peptides did lower the MIC of polymyxin B, possibly due to the fact that they are all taken up by the same pathway and are therefore aiding each other's uptake. Of interest is the influence that melittin has on the MIC of polymyxin B, given the […] membrane permeabilizing activity of melittin.

E. cloacae = assay type: cell-based; conditions: strain 218S, Parent of 218R1
Experimental: as §1

E. coli = assay type: cell-based; conditions: strain UB1005, Parent of DC2
Experimental: as §1

S. typhimurium = assay type: cell-based; conditions: C590 versus C587
Experimental: as §1

[2] = test system: P. aeruginosa H309 Whole Cells; assay type: binding; conditions: 5 mM HEPES pH 7.2, 5 mM KCN; average of at least three trials; read-out: I50 (DPx displacement from whole cells)
E. cloacae 218R1 = assay type: cell-based; conditions: 10 μM NPN; fluorescence increase
Source text: (§2) The second assay determined membrane permeability by the ability of 1-N-phenylnaphthylamine (NPN), a small fluorescent probe, to insert itself into the membrane. Normally, very little NPN can penetrate the outer membrane, but in the presence of a membrane permeabilizer it can insert into the hydrophobic membrane resulting in an increase in fluorescence (FIGS. 7 and 8). This N-phenylnaphthylamine uptake assay was previously described by Loh, et al., Antimicrobial Agents and Chemo., 26:546, 1984. Cells were prepared exactly the same as for the lysozyme lysis assay. 1-N-phenylnaphthylamine (NPN) was dissolved in acetone at a concentration of 500 μM. NPN fluorescence was measured in a Perkin-Elmer 650-10S fluorescent spectrophotometer using excitation and emission wavelengths set to 350 nm and 420 nm respectively, with slit widths of 5 nm. The assay was standardized by adding 20 μl of NPN (final concentration of 10 μM) and 10 μl of 0.64 mg/ml of polymyxin B (final concentration of 6.4 μg/ml) into 1 ml of cells, and adjusting the resulting fluorescence to read 90% deflection (90 arbitrary units). Various compounds were tested by adding 10 μl of different concentrations to a cuvette containing 1 ml of cells and 10 μM NPN. Permeabilizing activity was designated as the total fluorescence minus the fluorescence due to NPN alone. Following the fluorescence measurement, the OD600 of the cells was taken to ensure no significant cell lysis had occurred.

P. AERUGINOSA H309 = assay type: cell-based; conditions: 10 μM NPN; fluorescence increase
Source text: as §2

Molecule | MIC of antibiotic in the presence of CEMA ([1]; CEMA 0.7 μg/ml) | MIC of antibiotic in the presence of CEMA ([1]; CEMA 1.4 μg/ml) | MIC of antibiotic in the presence of CEME ([1]; CEME 0.6 μg/ml) | MIC of antibiotic in the presence of CEME ([1]; CEME 1.2 μg/ml) | MIC of antibiotic in the presence of Melittin ([1]; Melittin 2 μg/ml) | MIC of antibiotic in the presence of Melittin ([1]; Melittin 4 μg/ml) | MIC of antibiotic [1] | MIC (E. cloacae) | MIC (E. coli) | Sensitivity of defensin sensitive strain C590 relative to parent (MIC change) (S. typhimurium) | IC50 [2] | Activity in opening up the membrane to NPN (E. cloacae 218R1) | Activity in opening up the membrane to NPN (P. AERUGINOSA H309)
C[C@@H](O)[C@H]1C(=O)N2C(C(=O)O)=C(SCCN=CN)C[C@H]12 [Imipenem] | 4 µg/mL | 2 µg/mL | 4 µg/mL | 4 µg/mL | 4 µg/mL | 4 µg/mL | 4 µg/mL | – | – | – | – | – | –
CN(C)[C@@H]1C(O)=C(C(N)=O)C(=O)[C@@]2(O)C(O)=C3C(=O)c4c(O)cccc4[C@@](C)(O)[C@H]3C[C@@H]12 [Tetracycline] | 8 µg/mL | 4 µg/mL | 8 µg/mL | 8 µg/mL | 8 µg/mL | 8 µg/mL | 8 µg/mL | – | – | – | – | – | –
gentamicin | – | – | – | – | – | – | – | 0.5 µg/mL | 1 µg/mL | two-fold more sensitive | 39.1 ± 9.67 µM | – | –
polymyxin B | 0.5 µg/mL | 0.12 µg/mL | 0.5 µg/mL | 0.25 µg/mL | 0.5 µg/mL | 0.06 µg/mL | 1 µg/mL | 0.5 µg/mL | 0.5 µg/mL | four-fold more sensitive | 2.04 ± 0.65 µM | equally active | equally active
